Measurements taken from patent US20240034736A1, “HSD17B13 INHIBITORS AND USES THEREOF” (FL2022-001, Inc., priority 2020, published 2024).

The compounds below were run against Recombinant human HSD17B13 enzyme (Homo sapiens (Human), UniProt Q7Z5P4) (assay: HSD17b13 NAD(P)H-Glo Biochemical Assay). Details: 50 uM estradiol, 1 mM NAD+; read-out: HSD17β13 IC50.
How it was run: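 Luminescent NAD(P)H-Glo detection (1 h, RT) quantified cofactor reduction after a 3 h, 37° C reaction of human HSD17B13 with estradiol (50 uM final) and NAD+ (1 mM final). Compounds were first pre-incubated 20 min at RT with enzyme in Tris pH 7.4 buffer containing Tween-20 and BSA.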

Recombinant human HSD17B13 enzyme, sequence (Q7Z5P4 20-300): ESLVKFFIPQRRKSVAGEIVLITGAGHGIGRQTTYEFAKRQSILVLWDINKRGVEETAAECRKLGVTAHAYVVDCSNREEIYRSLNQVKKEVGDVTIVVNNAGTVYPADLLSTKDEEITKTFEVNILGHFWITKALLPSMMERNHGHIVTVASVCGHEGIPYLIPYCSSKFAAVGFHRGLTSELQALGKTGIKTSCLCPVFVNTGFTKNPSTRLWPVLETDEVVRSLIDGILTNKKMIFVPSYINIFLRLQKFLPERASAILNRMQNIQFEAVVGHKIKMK

Row | Structure (SMILES) | IC50 [µM]
1 | N#Cc1cccc(-c2ccc3c(cnn3-c3ccc(F)c(O)c3)c2)c1 [Compound 6.01, 3-(1-(4-Fluoro-3-hydroxyphenyl)-1H-indazol-5-yl)benzonitrile] | 0.1 to 1
2 | CS(=O)(=O)N1CCN(c2cc3cnn(-c4cc(O)c(F)cn4)c3cn2)CC1 [Compound 19.19, 5-Fluoro-2-(5-(4-(methylsulfonyl)piperazin-1-yl)-1H-pyrazolo[3,4-c]pyridine-1-yl)pyridine-4-ol] | 1 to 30
3 | CCN(c1cc2c(C)nn(-c3cc(C(F)(F)F)c(F)c(O)c3F)c2cn1)C1CCOCC1 [Compound 19.54, 3-(5-(Ethyl(tetrahydro-2H-pyran-4-yl)amino)-3-methyl-1H-pyrazolo[3,4-c]pyridine-1-yl)-2,6-difluoro-5-(trifluoromethyl)phenol] | < 0.1
4 | CC1CN(S(C)(=O)=O)CCN1c1cc2cnn(-c3cc(O)c(F)c(C(F)(F)F)c3)c2cn1 (stereo not drawn) [Compound 19.33, 2-Fluoro-5-(5-(2-methyl-4-(methylsulfonyl)piperazin-1-yl)-1H-pyrazolo[3,4-c]pyridine-1-yl)-3-(trifluoromethyl)phenol] | 0.1 to 1
5 | Cc1nn(-c2cc(C(F)(F)F)c(F)c(O)c2F)c2cnc(N3CC(C)(C)OC(C)(C)C3)nc12 [Compound 19.79, 2,6-Difluoro-3-(3-methyl-5-(2,2,6,6-tetramethylmorpholino)-1H-pyrazolo[4,3-d]pyrimidin-1-yl)-5-(trifluoromethyl)phenol] | < 0.1
6 | CS(=O)(=O)N1CCN(c2cc3cn(-c4cc(F)c(F)c(O)c4F)nc3cn2)CC1 [Compound 19.30, 2,3,6-Trifluoro-5-(5-(4-(methylsulfonyl)piperazin-1-yl)-2H-pyrazolo[3,4-c]pyridine-2-yl)phenol] | 0.1 to 1
7 | Cc1cc(-n2ncc3cc(N4CCN(S(C)(=O)=O)CC4)ncc32)cc(O)c1F [Compound 19.23, 2-Fluoro-3-methyl-5-(5-(4-(methylsulfonyl)piperazin-1-yl)-1H-pyrazolo[3,4-c]pyridine-1-yl)phenol] | 1 to 30
8 | Oc1ccc(-c2ccc3c(cnn3-c3cc(O)c(F)c(F)c3)c2)cc1Cl [Compound 3.03, 5-(5-(3-Chloro-4-hydroxyphenyl)-1H-indazol-1-yl)-2,3-difluorophenol] | 0.1 to 1
9 | Oc1cc(-n2cc3cc(-c4ccc(O)c(Cl)c4)ccc3n2)ccc1F [Compound 4.06, 2-Chloro-4-(2-(4-fluoro-3-hydroxyphenyl)-2H-indazol-5-yl)phenol] | 0.1 to 1
10 | CC(C)S(=O)(=O)Nc1ccc(-c2ccc3c(cnn3-c3ccc(F)c(O)c3)c2)cc1 [Compound 11, N-(4-(1-(4-Fluoro-3-hydroxyphenyl)-1H-indazol-5-yl)phenyl)propane-2-sulfonamide] | 0.1 to 1
11 | CS(=O)(=O)Nc1cccc(-c2ccc3c(cnn3-c3ccc(F)c(O)c3)c2)c1 [Compound 4.04, N-(3-(1-(4-Fluoro-3-hydroxyphenyl)-1H-indazol-5-yl)phenyl)methanesulfonamide] | 1 to 30
12 | CN(C)C(=O)c1nn(-c2ccc(F)c(O)c2)c2ccc(-c3ccc(O)c(Cl)c3)cc12 [Compound 14, 5-(3-Chloro-4-hydroxyphenyl)-1-(4-fluoro-3-hydroxyphenyl)-N,N-dimethyl-1H-indazole-3-carboxamide] | 0.1 to 1
13 | N#Cc1ccccc1-c1ccc2c(cnn2-c2ccc(F)c(O)c2)c1 [Compound 6, 2-(1-(4-Fluoro-3-hydroxyphenyl)-1H-indazol-5-yl)benzonitrile] | 0.1 to 1
14 | Cc1nn(-c2cc(O)c(F)c(C(C)O)c2)c2cnc(N3CCOCC34CC4)cc12 (stereo not drawn) [Compound 19.97, 2-Fluoro-3-(1-hydroxyethyl)-5-(3-methyl-5-(7-oxa-4-azaspiro[2.5]octan-4-yl)-1H-pyrazolo[3,4-c]pyridin-1-yl)phenol] | 1 to 30
15 | COc1ccc(-c2ccc3c(cnn3-c3cc(O)c(F)c(F)c3)c2)cn1 [Compound 7.01, 2,3-Difluoro-5-(5-(6-methoxypyridin-3-yl)-1H-indazol-1-yl)phenol] | 0.1 to 1
16 | CN(C)C(=O)c1ccc(-c2ccc3c(cnn3-c3ccc(F)c(O)c3)c2)c(Cl)c1 [Compound 5.10, 3-Chloro-4-(1-(4-fluoro-3-hydroxyphenyl)-1H-indazol-5-yl)-N,N-dimethylbenzamide] | 0.1 to 1
17 | Oc1c(F)c(-n2ncc3nc(N4CCOCC45CC5)ncc32)cc(C(F)(F)F)c1F [Compound 19.80, 3-(5-(7-Oxa-4-azaspiro[2.5]octan-4-yl)-1H-pyrazolo[4,3-d]pyrimidin-1-yl)-2,6-difluoro-5-(trifluoromethyl)phenol] | 0.1 to 1

Row | Structure (SMILES) | IC50 [µM]
18 | Cc1nn(-c2cc(O)c(F)c(C(C)(F)F)c2)c2cnc(N3CCOCC34CC4)cc12 [Compound 19.98, 3-(1,1-Difluoroethyl)-2-fluoro-5-(3-methyl-5-(7-oxa-4-azaspiro[2.5]octan-4-yl)-1H-pyrazolo[3,4-c]pyridin-1-yl)phenol] | 0.1 to 1
19 | Oc1cc(-n2ncc3cc(-c4ccc(Cl)cc4)ccc32)ccc1F [Compound 4.09, 5-(5-(4-Chlorophenyl)-1H-indazol-1-yl)-2-fluorophenol] | 0.1 to 1
20 | Oc1cc(-n2ncc3nc(-c4ccc(O)c(Cl)c4)ncc32)ccc1F [Compound 5.28, 2-Chloro-4-(1-(4-fluoro-3-hydroxyphenyl)-1H-pyrazolo[4,3-d]pyrimidin-5-yl)phenol] | 1 to 30
21 | CS(=O)(=O)N1CCC(c2ccc3c(cnn3-c3ccc(F)c(O)c3)c2)CC1 [Compound 26.01, 2-Fluoro-5-(5-(1-(methyl-sulfonyl)piperidin-4-yl)-1H-indazol-1-yl)phenol] | 1 to 30
22 | COCC1(c2ccc3c(cnn3-c3cc(O)c(F)c(F)c3)c2)CCN(S(C)(=O)=O)CC1 [Compound 28.02, 2,3-Difluoro-5-(5-(4-(meth-oxymethyl)-1-(methylsul-fonyl)piperidin-4-yl)-1H-indazol-1-yl)phenol] | 0.1 to 1
23 | CS(=O)(=O)NC1CN(c2ccc3c(cnn3-c3cc(O)c(F)c(F)c3)c2)C1 [Compound 21.07, N-(1-(1-(3,4-Difluoro-5-hydroxyphenyl)-1H-indazol-5-yl)azetidine-3-yl)methane-sulfonamide] | 1 to 30
24 | Cc1nn(-c2cc(C(F)(F)F)c(F)c(O)c2F)c2cc(F)c(N3CCOCC34CC4)cc12 [Compound 19.67, 2,6-Difluoro-3-(6-fluoro-3-methyl-5-(7-oxa-4-azaspiro[2.5]octan-4-yl)-1H-indazol-1-yl)-5-(trifluoromethyl)phenol] | < 0.1
25 | Oc1ccc(-c2ccc3c(cnn3-c3cc(O)c(F)c(F)c3)c2)nc1 [Compound 16, 6-(1-(3,4-Difluoro-5-hydroxyphenyl)-1H-indazol-5-yl)pyridine-3-ol] | 1 to 30
26 | CC(C)S(=O)(=O)N1CCN(c2ccc3c(cnn3-c3cc(O)c(F)c(F)c3)c2)CC1 [Compound 21.04, 2,3-Difluoro-5-(5-(4-(isoprop-ylsulfonyl)piperazin-1-yl)-1H-indazol-1-yl)phenol] | 0.1 to 1
27 | COc1ccc(-c2ccc3c(cnn3-c3ccc(F)c(O)c3)c2)c(Cl)c1 [Compound 5.03, 5-(5-(2-Chloro-4-methoxyphenyl)-1H-indazol-1-yl)-2-fluorophenol] | 0.1 to 1
28 | Cc1nn(-c2cc(C(F)(F)F)c(F)c(O)c2F)c2cnc(N(C)C3CCOCC3)cc12 [Compound 19.47, 2,6-Difluoro-3-(3-methyl-5-(methyl(tetrahydro-2H-pyran-4-yl)amino)-1H-pyrazolo[3,4-c]pyridin-1-yl)-5-(trifluoromethyl)phenol] | < 0.1
29 | CS(=O)(=O)N1CCC(c2cc3cnn(-c4cc(O)c(F)c(F)c4)c3cc2Cl)CC1 [Compound 27.01, 5-(6-Chloro-5-(1-(methyl-sulfonyl)piperidin-4-yl)-1H-indazol-1-yl)-2,3-difluoro-phenol] | 1 to 30
30 | Oc1cc(-n2ncc3cc(-c4ccc(OC(F)(F)F)cc4Cl)ccc32)ccc1F [Compound 5.06, 5-(5-(2-Chloro-4-(trifluoromethoxy)phenyl)-1H-indazol-1-yl)-2-fluorophenol] | 0.1 to 1
31 | Cc1nn(-c2cc(C(F)(F)F)c(F)c(O)c2F)c2cc(F)c(N(C)C3CCOCC3)cc12 [Compound 19.68, 2,6-Difluoro-3-(6-fluoro-3-methyl-5-(methyl(tetrahydro-2H-pyran-4-yl)amino)-1H-indazol-1-yl)-5-(trifluoromethyl)phenol] | < 0.1
32 | COC1CCN(c2ncc3c(n2)c(C)nn3-c2cc(C(F)(F)F)c(F)c(O)c2F)CC1 [Compound 19.77, 2,6-Difluoro-3-(5-(4-methoxypiperidin-1-yl)-3-methyl-1H-pyrazolo[4,3-d]pyrimidin-1-yl)-5-(trifluoromethyl)phenol] | < 0.1
33 | CS(=O)(=O)N1CCN(c2cc3cnn(-c4cc(O)c(Cl)c(F)c4)c3cn2)CC1 [Compound 19.17, 2-Chloro-3-fluoro-5-(5-(4-(methylsulfonyl)piperazin-1-yl)-1H-pyrazolo[3,4-c]pyridine-1-yl)phenol] | 1 to 30

Same assay, conditions: read-out: HSD17β13 inhibition at 10 uM

Row | Structure (SMILES) | inhibition at 10 µM [%]
34 | Cc1nn(-c2cc(O)c(F)c(C(=O)O)c2)c2cnc(N3CCOCC34CC4)cc12 [Compound 19.121, 2-Fluoro-3-hydroxy-5-(3-methyl-5-(7-oxa-4-azaspiro[2.5]octan-4-yl)-1H-pyrazolo[3,4-c]pyridin-1-yl)benzoic Acid] | < 20

Same assay, conditions: read-out: HSD17β13 inhibition at 30 uM

Row | Structure (SMILES) | inhibition at 30 µM [%]
35 | CS(=O)(=O)N1CCN(c2cc3cn(-c4ccc(C#N)c(O)c4)nc3cn2)CC1 [Compound 19.37, 2-Hydroxy-4-(5-(4-(methylsulfonyl)piperazin-1-yl)-2H-pyrazolo[3,4-c]pyridine-2-yl)benzonitrile] | 43

Same assay, conditions: read-out: HSD17β13 inhibition at 100 uM

Row | Structure (SMILES) | inhibition at 100 µM [%]
36 | CNC(=O)C1CCN(c2ccc3c(cnn3-c3ccc(F)c(O)c3)c2)CC1 [Compound 20.03, 1-(1-(4-Fluoro-3-hydroxy-phenyl)-1H-indazol-5-yl)-N-methylpiperidine-4-carboxamide] | 40
